Key:
[1] = target: Protein-tyrosine kinase 6 (Homo sapiens) (UniProt Q13882); experiment: Inhibition of BRK (unknown origin) assessed as residual activity at 100 nM by KINOMEscan analysis relative to control
[2] = target: Cyclin-dependent kinase 11B (Homo sapiens) (UniProt P21127); experiment: Inhibition of CDC2L1 (unknown origin) assessed as residual activity at 100 nM by KINOMEscan analysis relative to control
[3] = target: Cyclin-dependent kinase 9 (Homo sapiens) (UniProt P50750); experiment: Inhibition of CDK9 (unknown origin) assessed as residual activity at 100 nM by KINOMEscan analysis relative to control
[4] = target: Insulin receptor-related protein (Homo sapiens) (UniProt P14616); experiment: Inhibition of INSRR (unknown origin) assessed as residual activity at 100 nM by KINOMEscan analysis relative to control
[5] = target: T1, Tyrosine-protein kinase JAK3 (Homo sapiens) (UniProt P52333); experiment: Inhibition of JAK3 JH1 catalytic domain (unknown origin) assessed as residual activity at 100 nM by KINOMEscan analysis relative to control
T1 sequence (whole entry): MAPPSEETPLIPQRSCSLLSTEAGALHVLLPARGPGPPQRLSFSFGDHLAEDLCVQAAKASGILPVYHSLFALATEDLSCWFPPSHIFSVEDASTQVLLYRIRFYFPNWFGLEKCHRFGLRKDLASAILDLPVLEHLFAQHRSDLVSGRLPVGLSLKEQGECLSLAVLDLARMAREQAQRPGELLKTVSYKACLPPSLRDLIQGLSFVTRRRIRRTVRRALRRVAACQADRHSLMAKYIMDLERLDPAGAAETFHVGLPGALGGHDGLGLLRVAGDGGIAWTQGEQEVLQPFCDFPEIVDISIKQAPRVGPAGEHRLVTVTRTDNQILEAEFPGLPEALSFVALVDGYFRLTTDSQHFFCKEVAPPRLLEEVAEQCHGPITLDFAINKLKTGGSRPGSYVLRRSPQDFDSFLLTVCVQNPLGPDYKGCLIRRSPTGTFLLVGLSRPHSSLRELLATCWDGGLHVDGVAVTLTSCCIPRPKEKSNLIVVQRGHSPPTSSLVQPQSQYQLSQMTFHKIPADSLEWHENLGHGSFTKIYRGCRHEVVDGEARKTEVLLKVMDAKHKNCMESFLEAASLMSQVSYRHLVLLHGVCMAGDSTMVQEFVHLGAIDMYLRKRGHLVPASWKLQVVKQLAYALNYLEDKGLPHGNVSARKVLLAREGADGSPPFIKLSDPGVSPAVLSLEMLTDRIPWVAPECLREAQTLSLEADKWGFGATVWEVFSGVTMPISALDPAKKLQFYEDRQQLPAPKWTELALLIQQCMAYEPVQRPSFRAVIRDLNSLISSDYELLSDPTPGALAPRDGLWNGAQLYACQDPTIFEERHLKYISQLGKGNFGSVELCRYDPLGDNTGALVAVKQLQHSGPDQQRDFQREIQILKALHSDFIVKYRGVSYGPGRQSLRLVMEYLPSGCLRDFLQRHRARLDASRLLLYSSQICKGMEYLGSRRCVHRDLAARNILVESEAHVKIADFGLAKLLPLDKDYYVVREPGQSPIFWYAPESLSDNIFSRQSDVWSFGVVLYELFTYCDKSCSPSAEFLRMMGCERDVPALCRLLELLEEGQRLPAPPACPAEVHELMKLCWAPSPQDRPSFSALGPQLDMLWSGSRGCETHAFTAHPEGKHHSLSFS

[6] = system: Mast/stem cell growth factor receptor Kit (Homo sapiens), P10721 [D816H]; experiment: Inhibition of KIT D816H mutant (unknown origin) assessed as residual activity at 100 nM by KINOMEscan analysis relative to control
Mast/stem cell growth factor receptor Kit (Homo sapiens), P10721 [D816H], sequence (P10721 whole entry D816H): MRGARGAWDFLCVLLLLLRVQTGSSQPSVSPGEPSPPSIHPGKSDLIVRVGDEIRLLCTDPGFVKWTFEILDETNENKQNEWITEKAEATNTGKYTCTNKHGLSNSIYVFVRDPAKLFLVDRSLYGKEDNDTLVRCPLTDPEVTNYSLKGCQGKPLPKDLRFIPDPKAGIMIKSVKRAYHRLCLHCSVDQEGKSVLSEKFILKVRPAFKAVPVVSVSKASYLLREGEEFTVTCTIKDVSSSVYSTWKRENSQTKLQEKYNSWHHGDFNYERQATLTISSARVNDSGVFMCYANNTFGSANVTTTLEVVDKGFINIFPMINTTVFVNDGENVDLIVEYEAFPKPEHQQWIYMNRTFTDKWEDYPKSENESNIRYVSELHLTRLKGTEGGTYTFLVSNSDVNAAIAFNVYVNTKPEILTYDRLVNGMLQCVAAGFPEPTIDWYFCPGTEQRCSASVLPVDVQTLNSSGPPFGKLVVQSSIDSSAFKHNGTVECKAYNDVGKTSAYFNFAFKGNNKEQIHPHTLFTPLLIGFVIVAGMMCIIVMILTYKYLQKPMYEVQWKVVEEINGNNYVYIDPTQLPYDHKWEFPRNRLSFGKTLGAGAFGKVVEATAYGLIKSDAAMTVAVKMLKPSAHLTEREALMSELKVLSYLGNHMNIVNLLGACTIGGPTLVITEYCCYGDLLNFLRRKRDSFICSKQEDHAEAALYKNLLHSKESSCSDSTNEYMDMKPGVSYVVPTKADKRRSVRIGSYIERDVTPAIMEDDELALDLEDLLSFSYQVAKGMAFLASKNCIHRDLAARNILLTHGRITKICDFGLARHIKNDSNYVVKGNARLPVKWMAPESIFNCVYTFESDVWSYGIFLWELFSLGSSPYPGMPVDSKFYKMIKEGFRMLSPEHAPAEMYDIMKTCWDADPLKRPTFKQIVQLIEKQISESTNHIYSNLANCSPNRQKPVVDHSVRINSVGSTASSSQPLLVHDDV

[7] = target: MAP kinase-interacting serine/threonine-protein kinase 1 (Homo sapiens) (UniProt Q9BUB5); experiment: Inhibition of MKNK1 (unknown origin) assessed as residual activity at 100 nM by KINOMEscan analysis relative to control
MAP kinase-interacting serine/threonine-protein kinase 1 (Homo sapiens), sequence (Q9BUB5 whole entry, looked up): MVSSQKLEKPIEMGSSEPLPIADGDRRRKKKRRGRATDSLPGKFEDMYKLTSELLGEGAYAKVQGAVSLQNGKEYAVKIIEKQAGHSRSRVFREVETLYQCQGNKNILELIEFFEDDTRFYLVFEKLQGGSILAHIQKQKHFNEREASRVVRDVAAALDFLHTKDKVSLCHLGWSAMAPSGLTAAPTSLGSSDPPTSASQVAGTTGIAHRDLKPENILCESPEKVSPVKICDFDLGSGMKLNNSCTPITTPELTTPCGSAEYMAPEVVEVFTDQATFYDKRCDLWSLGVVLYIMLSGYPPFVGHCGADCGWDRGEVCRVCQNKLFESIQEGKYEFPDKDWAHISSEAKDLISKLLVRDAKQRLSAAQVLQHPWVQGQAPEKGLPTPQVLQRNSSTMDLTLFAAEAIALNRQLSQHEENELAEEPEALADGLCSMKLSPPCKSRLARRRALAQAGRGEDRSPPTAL

[8] = target: Mitogen-activated protein kinase 11 (Homo sapiens) (UniProt Q15759); experiment: Inhibition of p38-beta (unknown origin) assessed as residual activity at 100 nM by KINOMEscan analysis relative to control
Mitogen-activated protein kinase 11 (Homo sapiens), sequence (Q15759 whole entry): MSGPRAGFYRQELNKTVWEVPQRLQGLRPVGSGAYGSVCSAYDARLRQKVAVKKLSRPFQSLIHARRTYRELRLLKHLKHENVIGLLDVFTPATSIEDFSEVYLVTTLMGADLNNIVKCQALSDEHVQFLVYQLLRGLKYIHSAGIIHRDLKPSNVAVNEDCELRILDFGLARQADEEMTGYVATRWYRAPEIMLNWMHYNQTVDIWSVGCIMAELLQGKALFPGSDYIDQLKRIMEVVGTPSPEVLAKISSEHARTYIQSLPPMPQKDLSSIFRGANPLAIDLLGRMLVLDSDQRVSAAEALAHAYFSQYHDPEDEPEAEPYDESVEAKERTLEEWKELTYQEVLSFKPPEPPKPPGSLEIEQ

[9] = target: Serine/threonine-protein kinase PAK 4 (Homo sapiens) (UniProt O96013); experiment: Inhibition of PAK4 (unknown origin) assessed as residual activity at 100 nM by KINOMEscan analysis relative to control
Serine/threonine-protein kinase PAK 4 (Homo sapiens), sequence (O96013 whole entry, looked up): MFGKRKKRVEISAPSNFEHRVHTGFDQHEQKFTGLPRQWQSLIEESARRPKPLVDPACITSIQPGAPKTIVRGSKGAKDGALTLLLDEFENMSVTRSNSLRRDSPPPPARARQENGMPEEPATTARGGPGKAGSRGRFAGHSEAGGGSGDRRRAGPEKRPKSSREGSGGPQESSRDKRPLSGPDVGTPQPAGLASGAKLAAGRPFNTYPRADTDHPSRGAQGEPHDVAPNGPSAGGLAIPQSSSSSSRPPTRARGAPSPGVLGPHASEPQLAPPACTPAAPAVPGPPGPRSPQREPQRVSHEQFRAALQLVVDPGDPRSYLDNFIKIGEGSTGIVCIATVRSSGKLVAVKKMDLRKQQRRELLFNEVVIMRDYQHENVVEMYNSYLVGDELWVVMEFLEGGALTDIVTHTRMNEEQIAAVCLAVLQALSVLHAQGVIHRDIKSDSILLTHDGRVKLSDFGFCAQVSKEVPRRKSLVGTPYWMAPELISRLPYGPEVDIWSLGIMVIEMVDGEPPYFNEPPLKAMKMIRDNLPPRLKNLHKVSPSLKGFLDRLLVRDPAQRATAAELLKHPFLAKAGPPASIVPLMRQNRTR

[10] = target: Platelet-derived growth factor receptor beta (Homo sapiens) (UniProt P09619); experiment: Inhibition of PDGFRB (unknown origin) assessed as residual activity at 100 nM by KINOMEscan analysis relative to control
Platelet-derived growth factor receptor beta (Homo sapiens), sequence (P09619 whole entry, canonical isoform): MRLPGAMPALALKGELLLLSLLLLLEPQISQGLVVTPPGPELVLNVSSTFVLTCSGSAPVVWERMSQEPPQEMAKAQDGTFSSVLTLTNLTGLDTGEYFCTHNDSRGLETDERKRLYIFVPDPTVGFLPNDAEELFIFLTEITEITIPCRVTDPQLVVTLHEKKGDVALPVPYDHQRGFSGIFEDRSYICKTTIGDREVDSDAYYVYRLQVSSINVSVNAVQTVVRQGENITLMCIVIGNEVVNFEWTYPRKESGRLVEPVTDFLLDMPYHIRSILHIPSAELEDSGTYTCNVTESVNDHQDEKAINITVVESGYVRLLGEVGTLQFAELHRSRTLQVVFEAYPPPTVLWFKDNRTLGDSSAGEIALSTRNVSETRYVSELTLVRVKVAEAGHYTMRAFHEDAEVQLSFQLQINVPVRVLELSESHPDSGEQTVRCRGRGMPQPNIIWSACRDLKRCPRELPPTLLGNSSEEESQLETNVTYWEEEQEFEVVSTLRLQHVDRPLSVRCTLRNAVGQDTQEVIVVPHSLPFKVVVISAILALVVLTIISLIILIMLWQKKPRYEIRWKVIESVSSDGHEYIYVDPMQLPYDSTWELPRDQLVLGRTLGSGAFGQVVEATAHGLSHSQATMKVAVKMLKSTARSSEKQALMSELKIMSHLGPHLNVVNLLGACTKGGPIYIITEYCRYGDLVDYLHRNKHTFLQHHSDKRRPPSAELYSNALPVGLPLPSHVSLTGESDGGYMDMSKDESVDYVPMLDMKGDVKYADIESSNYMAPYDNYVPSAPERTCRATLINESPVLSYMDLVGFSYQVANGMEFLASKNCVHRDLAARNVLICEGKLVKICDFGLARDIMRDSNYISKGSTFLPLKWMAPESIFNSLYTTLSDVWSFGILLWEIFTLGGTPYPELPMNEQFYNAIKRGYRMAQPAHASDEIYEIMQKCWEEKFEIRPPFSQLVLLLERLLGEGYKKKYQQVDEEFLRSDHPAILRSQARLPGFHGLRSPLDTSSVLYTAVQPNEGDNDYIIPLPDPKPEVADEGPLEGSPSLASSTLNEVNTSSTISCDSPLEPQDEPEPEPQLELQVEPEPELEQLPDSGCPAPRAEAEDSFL

[11] = target: Phosphatidylinositol 4,5-bisphosphate 3-kinase catalytic subunit beta isoform (Homo sapiens) (UniProt P42338); experiment: Inhibition of PIK3CB (unknown origin) assessed as residual activity at 100 nM by KINOMEscan analysis relative to control
Phosphatidylinositol 4,5-bisphosphate 3-kinase catalytic subunit beta isoform (Homo sapiens), sequence (P42338 whole entry, looked up, canonical isoform): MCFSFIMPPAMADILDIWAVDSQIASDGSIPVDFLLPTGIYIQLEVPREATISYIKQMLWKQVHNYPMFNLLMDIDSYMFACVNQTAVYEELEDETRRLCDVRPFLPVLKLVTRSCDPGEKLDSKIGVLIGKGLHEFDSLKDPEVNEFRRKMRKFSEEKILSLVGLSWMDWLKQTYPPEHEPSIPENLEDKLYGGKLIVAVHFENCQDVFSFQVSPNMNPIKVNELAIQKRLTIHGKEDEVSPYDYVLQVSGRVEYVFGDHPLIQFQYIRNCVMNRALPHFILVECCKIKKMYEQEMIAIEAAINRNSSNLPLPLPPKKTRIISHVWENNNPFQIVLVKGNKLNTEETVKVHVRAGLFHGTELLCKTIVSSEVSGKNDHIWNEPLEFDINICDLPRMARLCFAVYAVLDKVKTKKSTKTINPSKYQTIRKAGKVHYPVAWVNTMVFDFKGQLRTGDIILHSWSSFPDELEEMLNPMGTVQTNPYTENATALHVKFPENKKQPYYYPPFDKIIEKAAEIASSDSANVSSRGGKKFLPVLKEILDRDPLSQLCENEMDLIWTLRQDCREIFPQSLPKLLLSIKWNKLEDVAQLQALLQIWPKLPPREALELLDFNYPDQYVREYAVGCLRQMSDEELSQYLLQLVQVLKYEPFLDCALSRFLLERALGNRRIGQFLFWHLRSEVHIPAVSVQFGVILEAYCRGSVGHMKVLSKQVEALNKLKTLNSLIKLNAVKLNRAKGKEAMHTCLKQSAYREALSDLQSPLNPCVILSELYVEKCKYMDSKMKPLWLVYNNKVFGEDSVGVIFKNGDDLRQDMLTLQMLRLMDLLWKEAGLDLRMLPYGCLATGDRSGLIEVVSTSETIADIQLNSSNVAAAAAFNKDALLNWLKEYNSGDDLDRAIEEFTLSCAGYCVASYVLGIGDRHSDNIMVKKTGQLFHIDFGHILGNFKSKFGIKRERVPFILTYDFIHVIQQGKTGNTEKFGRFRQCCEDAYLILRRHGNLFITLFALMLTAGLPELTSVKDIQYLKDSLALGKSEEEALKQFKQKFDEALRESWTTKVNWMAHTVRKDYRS

[12] = target: Serine/threonine-protein kinase pim-2 (Homo sapiens) (UniProt Q9P1W9); experiment: Inhibition of PIM2 (unknown origin) assessed as residual activity at 100 nM by KINOMEscan analysis relative to control
[13] = target: cAMP-dependent protein kinase catalytic subunit alpha (Homo sapiens) (UniProt P17612); experiment: Inhibition of PKAC-alpha (unknown origin) assessed as residual activity at 100 nM by KINOMEscan analysis relative to control
[14] = target: Ribosomal protein S6 kinase alpha-3 (Homo sapiens) (UniProt P51812); experiment: Inhibition of C-terminal RSK2 kinetic domain 2 (unknown origin) assessed as residual activity at 100 nM by KINOMEscan analysis relative to control

Protein-tyrosine kinase 6 (Homo sapiens), sequence (Q13882 whole entry, looked up): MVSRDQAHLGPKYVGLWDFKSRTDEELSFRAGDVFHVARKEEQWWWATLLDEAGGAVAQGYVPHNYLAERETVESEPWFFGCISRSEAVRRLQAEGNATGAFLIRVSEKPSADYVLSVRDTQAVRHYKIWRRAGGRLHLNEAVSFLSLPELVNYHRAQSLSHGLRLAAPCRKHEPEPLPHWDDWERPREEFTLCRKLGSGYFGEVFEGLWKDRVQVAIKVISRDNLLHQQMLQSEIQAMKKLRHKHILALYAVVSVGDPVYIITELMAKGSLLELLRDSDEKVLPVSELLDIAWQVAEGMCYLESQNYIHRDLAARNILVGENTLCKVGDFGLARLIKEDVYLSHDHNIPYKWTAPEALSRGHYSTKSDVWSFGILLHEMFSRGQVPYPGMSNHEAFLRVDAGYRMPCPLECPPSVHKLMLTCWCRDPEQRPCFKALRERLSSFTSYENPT

Work on `COc1cc2ncnc(N[C@H](C)c3cccc4ccccc34)c2cc1OC` yielded an Activity [1] of 80%, an Activity [2] of 82% and an Activity [3] of 89%. The Activity [4] was 92%, the Activity [5] was 84% and the Activity [6] was 89%. For the same compound, the Activity [7] was 61%, the Activity [8] was 81% and the Activity [9] was 87%. The Activity [10] was 100%, the Activity [11] was 72% and the Activity [12] was 73%. For the same compound, the Activity [13] was 80% and the Activity [14] was 92%.
